Several values for one entry are separate records, joined by “and”; a condition that tells them apart may be missing. Equal entries are not always repeated.
Experiment: xn = mol fraction of the nth substance listed

CC(C)CCC[C@@H](C)[C@H]1CC[C@H]2[C@@H]3CC=C4C[C@@H](O)CC[C@]4(C)[C@H]3CC[C@]12C + ClC(Cl)(Cl)Cl
viscosity [mPa·s], 101.33 kPa
Settings	x1 = 0.0058	x1 = 0.00978	x1 = 0.0123	x1 = 0.01552	x1 = 0.01963	x1 = 0.02491	x1 = 0.03174
298 K	0.983	1.04	1.077	1.136	1.219	1.328	1.491
303 K	0.912	0.962	0.996	1.045	1.12	1.212	1.355
313 K	0.797	0.836	0.858	0.898	0.953	1.024	1.134
323 K	0.705	0.738	0.753	0.785	0.826	0.881	0.96

CCCCC(CC)COC(=O)c1ccc(C(=O)OCC(CC)CCCC)c(C(=O)OCC(CC)CCCC)c1 (centres undefined) + O
101 kPa
Settings	viscosity [mPa·s]
303.14 K, x2 = 0.019	151.1
303.15 K, x2 = 0.0111	152.7
303.15 K, x2 = 0.0169	151.2
303.16 K, x2 = 0.00366	153.9
303.16 K, x2 = 0.00372	153.9
303.16 K, x2 = 0.00843	153.1
303.16 K, x2 = 0.0124	152.2
303.16 K, x2 = 0.0155	151.6
303.16 K, x2 = 0.0164	151.4

c1ccc(Oc2ccccc2)cc1 + ClC(Cl)Cl
298.15 K, 101 kPa
Settings	viscosity [mPa·s]
x1 = 0.3136	2.22
x1 = 0.5696	1.39
x1 = 0.817	0.83

CC(C)CCC[C@@H](C)[C@H]1CC[C@H]2[C@@H]3CC=C4C[C@@H](O)CC[C@]4(C)[C@H]3CC[C@]12C + Cc1ccccc1
viscosity [mPa·s], 101.33 kPa
Settings	x1 = 0.0038	x1 = 0.00638	x1 = 0.01075	x1 = 0.01353	x1 = 0.01707	x1 = 0.02159	x1 = 0.02737	x1 = 0.03485
298 K	0.567	0.579	0.604	0.616	0.639	0.672	0.716	0.787
303 K	0.534	0.546	0.569	0.579	0.599	0.628	0.668	0.731
313 K	0.478	0.488	0.508	0.515	0.533	0.556	0.591	0.64
323 K	0.432	0.44	0.458	0.464	0.476	0.497	0.523	0.562

COC=O + O=C1CCCO1
298.15 K, 101.33 kPa
Settings	viscosity [mPa·s]
x1 = 0.0499	1.589
x1 = 0.1025	1.457
x1 = 0.153	1.367
x1 = 0.2017	1.262
x1 = 0.2492	1.175
x1 = 0.303	1.08
x1 = 0.4004	0.913
x1 = 0.4594	0.821
x1 = 0.5053	0.747
x1 = 0.5599	0.678
x1 = 0.6177	0.611
x1 = 0.7071	0.515
x1 = 0.7556	0.456
x1 = 0.8	0.426
x1 = 0.8515	0.38
x1 = 0.9005	0.344
x1 = 0.9511	0.331

Cc1ccccc1C + Cc1cccc(C)c1
viscosity [mPa·s], 101.3 kPa
Settings	x1 = 0.0817	x1 = 0.1825	x1 = 0.2946	x1 = 0.4285	x1 = 0.5533	x1 = 0.6715	x1 = 0.7904	x1 = 0.9	x1 = 0.9001
298.15 K	0.5998	0.6144	0.6303	0.6512	0.6731	0.6924	0.7148	0.7349	–
303.15 K	0.5668	0.5783	0.5938	0.6119	0.631	0.6486	0.6675	–	0.6859

Cc1ccccc1C + CC1COC(=O)O1
303.15 K, 101.3 kPa
Settings	viscosity [mPa·s]
x2 = 0.1383	0.8178
x2 = 0.2653	0.9124
x2 = 0.3824	1.011
x2 = 0.4906	1.12
x2 = 0.5909	1.244
x2 = 0.6842	1.384
x2 = 0.7712	1.547
x2 = 0.8525	1.733
x2 = 0.9286	1.937

CC(C)[C@@H]1CC[C@@H](C)C[C@H]1O + CC(O)CO
Settings	viscosity [mPa·s]
298.15 K, 101.33 kPa, x1 = 0.5	81.72

CCCCCCCCCCCC + CCCCCCCC
Settings	viscosity
298.15 K, 101.33 kPa, x2 = 0.1117	1.233 mPa·s
298.15 K, 101.33 kPa, x2 = 0.2101	1.138 mPa·s
298.15 K, 101.33 kPa, x2 = 0.3025	1.038 mPa·s
298.15 K, 101.33 kPa, x2 = 0.4085	0.9477 mPa·s
298.15 K, 101.33 kPa, x2 = 0.5069	0.8672 mPa·s
298.15 K, 101.33 kPa, x2 = 0.6088	0.7703 mPa·s
298.15 K, 101.33 kPa, x2 = 0.7035	0.71 mPa·s
298.15 K, 101.33 kPa, x2 = 0.804	0.6353 mPa·s
298.15 K, 101.33 kPa, x2 = 0.9048	0.5647 mPa·s
298.2 K, 100 kPa, x2 = 0.5	0.869 mPa·s
323.15 K, 100 kPa, x2 = 0.434	0.658 mPa·s and 0.657 mPa·s
323.15 K, 100 kPa, x2 = 0.743	0.502 mPa·s and 0.501 mPa·s

CC(C)CCC[C@@H](C)[C@H]1CC[C@H]2[C@@H]3CC=C4C[C@@H](O)CC[C@]4(C)[C@H]3CC[C@]12C + c1ccccc1
viscosity [mPa·s], 101.33 kPa
Settings	x1 = 0.00346	x1 = 0.00447	x1 = 0.00753	x1 = 0.008796	x1 = 0.01276	x1 = 0.01496	x1 = 0.01612	x1 = 0.01894	x1 = 0.02302
298 K	0.617	0.624	0.643	0.651	0.681	0.698	0.708	0.733	0.773
303 K	0.574	0.579	0.598	0.607	0.633	0.647	0.657	0.677	0.714
313 K	0.506	0.509	0.525	0.529	0.552	0.565	0.571	0.588	0.614
323 K	0.448	0.453	0.466	0.472	0.489	0.499	0.504	0.517	0.541

CCC#N + CC#N
298 K, 101.33 kPa
Settings	viscosity [mPa·s]
x1 = 0.1298	0.35
x1 = 0.2716	0.36
x1 = 0.4271	0.374
x1 = 0.5986	0.384
x1 = 0.7885	0.402

COCCOCCO + CCCO
viscosity [mPa·s], 101 kPa
Settings	298.15 K	308.15 K	318.15 K
x1 = 0.0105	1.951	1.522	1.248
x1 = 0.0278	1.961	1.547	1.25
x1 = 0.0448	1.966	1.559	1.259
x1 = 0.0797	1.979	1.566	1.275
x1 = 0.0978	1.998	1.566	1.28
x1 = 0.1316	2.02	1.581	1.296
x1 = 0.1852	2.069	1.613	1.326
x1 = 0.2267	2.104	1.648	1.369
x1 = 0.2853	2.158	1.693	1.399
x1 = 0.3029	2.172	1.713	1.415
x1 = 0.3226	2.2	1.724	1.43
x1 = 0.3872	2.284	1.79	1.486
x1 = 0.439	2.354	1.84	1.532
x1 = 0.4811	2.416	1.888	1.573
x1 = 0.5266	2.42	1.94	1.618
x1 = 0.5519	2.528	1.969	1.643
x1 = 0.6051	2.624	2.037	1.694
x1 = 0.6805	2.748	2.138	1.778
x1 = 0.7239	2.835	2.193	1.832
x1 = 0.7925	2.967	2.29	1.917
x1 = 0.8237	3.034	2.338	1.947
x1 = 0.8896	3.163	2.439	2.027
x1 = 0.9096	3.207	2.464	2.051
x1 = 0.9417	3.265	2.509	2.086
x2 = 0.0151	3.393	2.614	2.14

CC(C)[C@@H]1CC[C@@H](C)C[C@H]1O + CCCCCCO
Settings	viscosity [mPa·s]
298.15 K, 101.33 kPa, x1 = 0.5	22.95

Cc1ccccc1C + C1CCCCC1
viscosity [mPa·s], 101 kPa
Settings	x1 = 0.0998	x1 = 0.2001	x1 = 0.3	x1 = 0.4	x1 = 0.5	x1 = 0.6	x1 = 0.7001	x1 = 0.7999	x1 = 0.9
303.15 K	0.7647	0.7241	0.6977	0.6817	0.6728	0.6706	0.6735	0.681	0.6924
308.15 K	0.7083	0.6736	0.6511	0.6372	0.6306	0.6289	0.6317	0.639	0.65
313.15 K	0.6583	0.6281	0.6097	0.5979	0.592	0.5919	0.5946	0.6015	0.6118
318.15 K	0.6129	0.5876	0.572	0.5615	0.5568	0.5562	0.5614	0.5679	0.5772
323.15 K	0.5722	0.5508	0.5372	0.5284	0.5247	0.5248	0.5293	0.5365	0.5452

From the CheMixHub viscosity set
